Measurements: BindingDB's records for doi:10.1021/jm970522y (Parke-Davis Pharmaceutical Research, 1997)

These compounds were tested against T1, Dimer of Gag-Pol polyprotein [489-587] (Human immunodeficiency virus 1, UniProt P12497) (assay: Protease Inhibition Assay). Details: pH 6.2; 37 °C.
T1 construct: 489-587
Protocol: For determination of IC50 values, HIV-1 protease was added to assay buffer containing inhibitor and the substrate (H-His-Lys-Ala-Arg-Val-Leu- (p-NO2) Phe-Glu-Ala-norleucine-Ser-NH2). The Leu- (p-NO2) Phe bond of the substrate was cleaved by the enzyme, and the substrate and products were separated by reversed-phase HPLC. Absorbance was measured at 220 nm, peak areas were determined, and percentage conversion to product was calculated.
`Cc1cc(SC2C(=O)CC(CCc3ccccc3)(c3ccccc3)OC2=O)c(C(C)(C)C)cc1O` (stereo not drawn) [3-[(2-tert-butyl-4-hydroxy-5-methylphenyl)sulfanyl]-4-hydroxy-6-phenyl-6-(2-phenylethyl)-5,6-dihydro-2H-pyran-2-one] showed an IC50 of 33 nM.
For `Cc1ccc(C(C)(C)C)c(SC2C(=O)CC(CCc3ccc(O)cc3)(c3ccccc3)OC2=O)c1` (stereo not drawn) [PD 178390 Analog 1], the IC50 was 11 nM.
Work on `COc1cc(C(C)(C)C)c(SC2C(=O)CC(CCc3ccccc3)(c3ccccc3)OC2=O)cc1C` (stereo not drawn) [3-[(2-tert-butyl-4-methoxy-5-methylphenyl)sulfanyl]-4-hydroxy-6-phenyl-6-(2-phenylethyl)-5,6-dihydro-2H-pyran-2-one] yielded an IC50 of 15 nM.
With `Cc1cc(SC2C(=O)CC(CCc3cccc(N)c3)(c3ccccc3)OC2=O)c(C(C)(C)C)cc1CO` (stereo not drawn) [6-[2-(3-aminophenyl)ethyl]-3-{[2-tert-butyl-4-(hydroxymethyl)-5-methylphenyl]sulfanyl}-4-hydroxy-6-phenyl-5,6-dihydro-2H-pyran-2-one] the IC50 was 4 nM.
Compound `Cc1cc(SC2C(=O)CC(CCc3ccccc3)(c3ccc(OCCO)cc3)OC2=O)c(C(C)(C)C)cc1OCCO` (stereo not drawn) [3-{[2-tert-butyl-4-(2-hydroxyethoxy)-5-methylphenyl]sulfanyl}-4-hydroxy-6-[4-(2-hydroxyethoxy)phenyl]-6-(2-phenylethyl)-5,6-dihydro-2H-pyran-2-one] has an IC50 of 6.4 nM.
Work on `Cc1cc(SC2C(=O)CC(C)(CCc3ccc(O)cc3)OC2=O)c(C(C)(C)C)cc1CO` (stereo not drawn) [PD 178390 Analog 12] yielded an IC50 of 4.3 nM.
`Cc1cc(SC2C(=O)CC(CCc3ccccc3)(c3ccccc3)OC2=O)c(C(C)(C)C)cc1CO` (stereo not drawn) [PD 178390 Analog 38] gave an IC50 of 6.6 nM.
Compound `Cc1cc(SC2C(=O)CC(CCc3ccc(O)cc3)(c3ccc(O)cc3)OC2=O)c(C(C)(C)C)cc1CO` (stereo not drawn) [3-{[2-tert-butyl-4-(hydroxymethyl)-5-methylphenyl]sulfanyl}-4-hydroxy-6-(4-hydroxyphenyl)-6-[2-(4-hydroxyphenyl)ethyl]-5,6-dihydro-2H-pyran-2-one] has an IC50 of 120 nM.
Work on `Cc1cc(SC2C(=O)CC(CCc3ccccc3)(c3ccc(OCCO)cc3)OC2=O)c(C(C)(C)C)cc1CO` (stereo not drawn) [3-{[2-tert-butyl-4-(hydroxymethyl)-5-methylphenyl]sulfanyl}-4-hydroxy-6-[4-(2-hydroxyethoxy)phenyl]-6-(2-phenylethyl)-5,6-dihydro-2H-pyran-2-one] yielded an IC50 of 1.4 nM.
`COCc1cc(C(C)(C)C)c(SC2C(=O)CC(CCc3ccccc3)(c3ccc(OCCO)cc3)OC2=O)cc1C` (stereo not drawn) [3-{[2-tert-butyl-4-(methoxymethyl)-5-methylphenyl]sulfanyl}-4-hydroxy-6-[4-(2-hydroxyethoxy)phenyl]-6-(2-phenylethyl)-5,6-dihydro-2H-pyran-2-one] showed an IC50 of 4.5 nM.
`Cc1ccc(C(C)(C)C)c(SC2C(=O)CC(CCc3ccccc3)(c3ccccc3)OC2=O)c1` (stereo not drawn) [4-Hydroxy-5,6-dihydropyrone deriv. 49] was tested, and the IC50 was 35 nM.
Work on `Cc1cc(SC2C(=O)CC(CCc3ccc(N)cc3)(C3CCCCC3)OC2=O)c(C(C)(C)C)cc1CO` (stereo not drawn) [PD 178390 Analog 36] yielded an IC50 of 3.2 nM.
`Cc1ccc(C(C)(C)C)c(SC2C(=O)CC(CCc3ccccc3)(c3ccc(OCCO)cc3)OC2=O)c1` (stereo not drawn) [3-[(2-tert-butyl-5-methylphenyl)sulfanyl]-4-hydroxy-6-[4-(2-hydroxyethoxy)phenyl]-6-(2-phenylethyl)-5,6-dihydro-2H-pyran-2-one] gave an IC50 of 12 nM.
`Cc1ccc(C(C)(C)C)c(SC2C(=O)CC(CCc3ccccc3)(c3ccc(O)cc3)OC2=O)c1` (stereo not drawn) [3-[(2-tert-butyl-5-methylphenyl)sulfanyl]-4-hydroxy-6-(4-hydroxyphenyl)-6-(2-phenylethyl)-5,6-dihydro-2H-pyran-2-one] was tested, and the IC50 was 40 nM.
In the case of `Cc1cc(SC2C(=O)CC(CCc3ccc(N)cc3)(C(C)C)OC2=O)c(C(C)(C)C)cc1CO` (stereo not drawn) [6-[2-(4-aminophenyl)ethyl]-3-{[2-tert-butyl-4-(hydroxymethyl)-5-methylphenyl]sulfanyl}-4-hydroxy-6-(propan-2-yl)-5,6-dihydro-2H-pyran-2-one], the IC50 is reported as 2.7 nM.
`Cc1cc(SC2C(=O)CC(CCc3cccc(O)c3)(c3ccccc3)OC2=O)c(C(C)(C)C)cc1CO` (stereo not drawn) [3-{[2-tert-butyl-4-(hydroxymethyl)-5-methylphenyl]sulfanyl}-4-hydroxy-6-[2-(3-hydroxyphenyl)ethyl]-6-phenyl-5,6-dihydro-2H-pyran-2-one] showed an IC50 of 2.5 nM.
`Cc1cc(SC2C(=O)CC(CCc3ccc(O)cc3)(C3CCCCC3)OC2=O)c(C(C)(C)C)cc1CO` (stereo not drawn) [PD 178390 Analog 21] showed an IC50 of 4.1 nM.
With `Cc1ccc(C(C)(C)C)c(SC2C(=O)CC(CCc3ccc(N)cc3)(c3ccccc3)OC2=O)c1` (stereo not drawn) [6-[2-(4-aminophenyl)ethyl]-3-[(2-tert-butyl-5-methylphenyl)sulfanyl]-4-hydroxy-6-phenyl-5,6-dihydro-2H-pyran-2-one] the IC50 was 24 nM.
In the case of `Cc1cc(SC2C(=O)CC(CCc3ccccc3)(c3ccc(OCCO)cc3)OC2=O)c(C(C)(C)C)cc1O` (stereo not drawn) [3-[(2-tert-butyl-4-hydroxy-5-methylphenyl)sulfanyl]-4-hydroxy-6-[4-(2-hydroxyethoxy)phenyl]-6-(2-phenylethyl)-5,6-dihydro-2H-pyran-2-one], the IC50 is reported as 3.7 nM.
In the case of `Cc1cc(SC2C(=O)CC(CCc3ccc(N)cc3)(c3ccccc3)OC2=O)c(C(C)(C)C)cc1CO` (stereo not drawn) [PD 178390 Analog 33], the IC50 is reported as 3.1 nM.
With `Cc1ccc(C(C)(C)C)c(SC2C(=O)CC(CCc3ccccc3)(c3ccc(N)cc3)OC2=O)c1` (stereo not drawn) [6-(4-aminophenyl)-3-[(2-tert-butyl-5-methylphenyl)sulfanyl]-4-hydroxy-6-(2-phenylethyl)-5,6-dihydro-2H-pyran-2-one] the IC50 was 32 nM.
In the case of `Cc1cc(SC2C(=O)CC(CCc3ccc(O)cc3)(C(C)C)OC2=O)c(C(C)(C)C)cc1CO` (stereo not drawn) [3-{[2-tert-butyl-4-(hydroxymethyl)-5-methylphenyl]sulfanyl}-4-hydroxy-6-[2-(4-hydroxyphenyl)ethyl]-6-(propan-2-yl)-5,6-dihydro-2H-pyran-2-one], the IC50 is reported as 3.6 nM.
`Cc1cc(SC2C(=O)CC(CCc3ccccc3)(c3ccccc3)OC2=O)c(C(C)(C)C)cc1OCCO` (stereo not drawn) [PD 178390 Analog 41] was tested, and the IC50 was 6.8 nM.
